The values below come from publication PMC10490225, “Genome-Wide Characterization of Soybean Hexokinase Genes Reveals a Positive Role of GmHXK15 in Alkali Stress Response” (Plants, 2023).

This assay deals with T1, GmHXK15.
T1 construct: CDS in pET32a(+) (NcoI/XhoI), His-tagged fusion, E. coli Rosetta / DE3, Ni-NTA
As to the kind of experiment: initial velocity, Michaelis-Menten / Eadie-Hofstee. The format is biochemical, Glycine max. As to conditions: assay pH, temperature and ATP not stated.

Regarding `OC[C@H]1OC(O)[C@H](O)[C@@H](O)[C@@H]1O` (some centres unmarked) [glucose], where the note is “varied glucose”, the Km came out at 60 µM.
For the compound `OCC1(O)OC[C@@H](O)[C@@H](O)[C@@H]1O` (some centres unmarked) [fructose], the Km (varied fructose) came to 1300 µM.

As usually defined, the Km is the substrate concentration at which the rate is half of its maximum.
